Measurements reported in patent US20160214958A1, “COMPOUNDS AND USE FOR TREATING CANCER” (GLIONOVA AB, priority 2013, published 2016).
Read-outs that look alike come from different tables or passages of the source.

How the values were obtained:
[1] = Pharmacokinetic evaluation of Vacquinol-1 stereoisomers, plasma and brain; type: in vivo, NMRI (SR/RS) or BALB/c (Vrac) mice; conditions: for Cmax Brain / tlast Brain / tlast Plasma / AUC(0-t) / half-life / Tmax / Cmax: mice
Procedure: The pharmacokinetics of Vacquinol-1 (racemic), Vacquinol-1RS and Vacquinol-1SR, were determined in NMRI (SR/RS) or BALB/c (Vrac) mice following single intravenous (i.v.) or per oral (p.o) administration of 2 or 20 mg/kg Vacquinol-1, respectively. Blood and brain samples were taken from animals at the following nominal time points: 15, 30, and 60 minutes, and 2, 4, 6, 8, 24, 48, 72 and 144 hours after dosing (n=3/time-point). Bioanalytical quantification of Vacquinol-1 was analysed in plasma and brain samples by a UPLC-MS/MS.
Pharmacokinetics were calculated by non-compartmental analysis (NCA) from composite (mean) profiles. Nominal sampling times and dose levels have been used for the NCA calculations.

[2] = tested on: Caspase-3 and Caspase-7; assay: Caspase-3 and Caspase-7 enzymatic activity in GSC; type: cell-based, human; conditions: 5-30 μM, 2 to 600 minutes
Procedure: A distinctive feature of apoptosis is the rapid loss of ATP associated with decoupling of the respiratory chain. Death of GSCs was therefore examined in the presence of the apoptosis inhibitor Q-VAD. […] However, Q-VAD only modestly rescued S10 treated cells from death at 3 and 7 hrs. […] Caspase-3 and Caspase-7 enzymatic activity was measured at 2, 15, 30, 60, 120, 120, 240, 360 and 600 minutes after addition of S10 at increasing concentrations from 5-30 μM. […] The rapid depletion of ATP by S10 led us to therefore examine the mitochondria. The accumulation of tetramethylrhodamine ethyl ester (TMRE) in mitochondria and […] is driven by their membrane potential. TMRE incorporation in mitochondria was largely unaffected by S10. […]
For measuring cell viability, cytotoxicity and apoptosis in GSC/fibroblast/mGlia cells were grown in 384-well microtiter plates using procedure described above. […] Cell viability, cytotoxcity and apoptosis were measured using CellTiter-Glo® Luminescent Cell Viability Assay (Promega), CytoTox-Glo Cytotoxicity Assay and […], according to manufacturer's instructions. […] Luminescence was measured using a Victor3 FA (Perkin Elmer) microtiterplate reader and the level of released Caspase 3/7 quantified relative to control using GraphPad Prism (v6.02) software.

[3] = tested on: phospho-MKK4; assay: Western blot of GSC for phospho-MKK4; type: cell-based, human; conditions: GSCs; remained at similar levels for at least 26 hrs
From the text: A genome wide screen with shRNA libraries was used to identify pathways for S10 induced macropinocytosis. The approach was based on the idea that depleting a key factor in the pathway should render GSCs refractive to S10 induced death. Three different DECIPHER pooled lentiviral shRNA libraries consisting of 82500 shRNA covering 15377 genes grouped into Human Module 1 (genes associated with various signaling pathways), Human Module 2 (disease-associated genes) and Human Module 3 (genes associated with cell surface, extracellular and DNA binding), were used to transduce U3013MG GSCs. Four days later, 14 μM S10 was added for one day after which cells were cultured in standard medium for five month. Surviving cells were thereafter dissociated and further expanded. […] Phospho-MKK4 increased within 5 min of S10 exposure and remained at similar levels for at least 26 hrs of stimulation. […]
Whole-cell extracts were prepared in SDS-buffer (25 mM Tris-HCl, pH 7.5, 1 mM EDTA, protease inhibitor cocktail (Roche), and phosphatase inhibitors [2 mM sodium orthovanadate, 20 mM beta-glycerolphosphate], and 1% SDS). The samples were analysed by western blot as described previously (Aranda et al. (2008) Mol Cell Biol, 28, 5899-5911) with the following antibodies: anti-Histone H3 (Abcam), antitrimethyl(Lys27)-Histone H3 (Millipore) and anti-phospho(S257/Thr261)-SEK1/MKK4 (R&D Systems).

Structure (SMILES): OC(c1cc(-c2ccc(Cl)cc2)nc2ccccc12)C1CCCCN1 (racemic) [Compound S10, (2-(4-chlorophenyl)quinolin-4-yl)(piperidin-2-yl)methanol]
- Cmax Brain ([1]; 2 mg/kg i.v.): 514 ng/mL
- tlast Brain ([1]; 2 mg/kg i.v.): 144 h
- tlast Plasma ([1]; 2 mg/kg i.v.): 144 h
- Cmax Brain ([1]; 20 mg/kg p.o.): 1860 ng/mL
- tlast Brain ([1]; 20 mg/kg p.o.): 144 h
- tlast Plasma ([1]; 20 mg/kg p.o.): 144 h
- Kp ([1]; NMRI (single stereoisomers SR/RS), BALB/c (racemate), mouse, brain and plasma, 20 mg/kg, after oral dosing, read-out: relative brain/plasma exposure ratio (AUClast(brain)/AUClast(plasma))): 0.6
- AUC(0-t) ([1]; NMRI (single stereoisomers SR/RS), BALB/c (racemate), mouse, brain, iv, 2 mg/kg i.v., read-out: AUClast Brain): 20.4 µg·h/mL
- half-life ([1]; NMRI (single stereoisomers SR/RS), BALB/c (racemate), mouse, brain, iv, 2 mg/kg i.v., read-out: t1/2 Brain (converted)): 63 h
- AUC(0-t) ([1]; NMRI (single stereoisomers SR/RS), BALB/c (racemate), mouse, brain, po, 20 mg/kg p.o., read-out: AUClast Brain): 167 µg·h/mL
- Tmax ([1]; NMRI (single stereoisomers SR/RS), BALB/c (racemate), mouse, brain, po, 20 mg/kg p.o., read-out: tmax Brain): 48 h
- Cmax ([1]; NMRI (single stereoisomers SR/RS), BALB/c (racemate), mouse, plasma, iv, 2 mg/kg i.v.): 467 ng/mL
- AUC(0-t) ([1]; NMRI (single stereoisomers SR/RS), BALB/c (racemate), mouse, plasma, iv, 2 mg/kg i.v., read-out: AUClast Plasma): 64.5 µg·h/mL
- half-life ([1]; NMRI (single stereoisomers SR/RS), BALB/c (racemate), mouse, plasma, iv, 2 mg/kg i.v., read-out: t1/2 Plasma (converted)): 52 h
- Cmax ([1]; NMRI (single stereoisomers SR/RS), BALB/c (racemate), mouse, plasma, po, 20 mg/kg p.o.): 3280 ng/mL
- AUC(0-t) ([1]; NMRI (single stereoisomers SR/RS), BALB/c (racemate), mouse, plasma, po, 20 mg/kg p.o., read-out: AUClast Plasma): 292 µg·h/mL
- Tmax ([1]; NMRI (single stereoisomers SR/RS), BALB/c (racemate), mouse, plasma, po, 20 mg/kg p.o., read-out: tmax Plasma): 24 h
- Cmax exposures ratio (Cmax(brain)/Cmax(plasma)) ([1]; after oral dosing): 0.6
- caspase activity relative to DMSO control [2]: no effect on caspase activity
- time to increase of Phospho-MKK4 after exposure [3]: ≤ 5 min
